Assay results from US12448388B2, “PRMT5 inhibitors and uses thereof” (Gilead Sciences, Inc., priority 2023, dated 2025).
Read-outs that look alike come from different tables or passages of the source.

Tests used:
[1] = Pharmacokinetics in cassette in male Sprague-Dawley rats for Kp measurement; assay type: in vivo; details: 1 mg/kg, intravenous
Protocol: E.1 Test Animal: Male Sprague-Dawley Rats (225-300 g) with Indwelling Bilateral Jugular Vain Cannula (JVC/JVC) or Single Jugular Vein Cannula (JVC)
E.2 Pharmaceutical Formulation and Administration
Test compound was dissolved in the vehicle of 10% DMSO, 10% ethanol, 40% polyethylene glycol 300, and 40% propylene glycol to get 1 mg/mL test compound solution. The compound was administered by intravenous administration at a dose of 1 mL/kg. Fasting was not required.
• Anticoagulant: K2EDTA • Volume: approximately 225 μL blood at each bleed • Jugula vein via syringe and needle or another method (non-terminal samples) or exsanguination (cardiac puncture) under isoflurane (or CO2 inhalation if isoflurane is unavailable) anesthesia (terminal time points). Blood samples were collected into K2EDTA tubes • Tissue collection and processing: following the terminal blood collection, the brain and CSF were collected from each animal.

[2] = Cell viability assay (CellTiter-Glo, 7 days), HCT116 WT; assay type: cell-based; details: human, HCT116 WT cells, 7 days of treatment, CTG
How it was run: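 Read-out was CellTiter-Glo luminescence after a 7-day incubation (37 °C, 5% CO2) of HCT116 cells, MTAP-deleted or WT, on dose-response compound plates. CC50 values come from each line; where marked *, selectivity is overstated because poor solubility impaired the WT CC50 measurement.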

[3] = Hepatocyte stability assay, human; assay type: in vitro ADME; details: human hepatocytes, 1 μM
Protocol: BioreclamationIVT (Baltimore, MD) provided the cryopreserved hepatocytes, hepatocyte thawing (HT) medium, and Krebs-Henseleit buffer (KHB) medium. The stock solution concentration was 1 M in DMSO and was then diluted further in acetonitrile/water (1:1 v/v). All other chemicals were purchased from Sigma-Aldrich (St. Louis, MO) or Thermo Fisher Scientific (Waltham, MA).
The quench solution used to stop reactions in the hepatocyte incubations was comprised of 100% (v/v) acetonitrile. Internal Standard/Quench (IS/Q) solution used to stop reactions with the positive control also contained 200 nM Labetalol.
Metabolic Stability in Cryopreserved Hepatocytes: Test compounds, or the positive control metabolic substrate, was incubated in suspensions of cryopreserved hepatocytes at a final concentration of 1 μM. Vials containing cryopreserved hepatocytes were removed from liquid nitrogen and immediately immersed in a 37° C. water bath. The vials were swirled gently until the contents had thawed. They were then immediately emptied into 48 mL of pre-warmed thawing medium in a 50 mL conical tube. Cells remaining in the vial were re-suspended with 1.0 mL of pre-warmed thawing medium and added to the conical tube. The tube was capped and then gently inverted several times to re-suspend the hepatocytes. The cell suspension was centrifuged at 500×g for 10 minutes at room temperature and the supernatant discarded. The cell pellet was loosened by gently swirling the centrifuge tube. Non-supplemented KHB medium was added to obtain the appropriate target cell density. The viabilities of all cell preparations were ≥85%, assessed by Trypan blue dye exclusion.
For incubations, aliquots of hepatocyte suspension (250 μL containing a cell concentration of 2×10^6 cells/mL) were added to 250 μL of 2 μM substrate (test compound or positive control) in supplemented KHB in duplicate wells in a 24-well plate. Final concentration in the incubations were 1×10^6 cells/mL and 1 μM substrate. A cell-free control incubation (KHB only) was also included. The incubations were carried out with gentle shaking in a 37° C. incubator under a humid atmosphere of 95% air/5% CO2 (v/v). Aliquots (100 μL) were removed after 0, 1, 3, and 6 hours and added to 200 μL quenching solution. The samples were then placed on a shaker for 10 min followed by centrifugation at 3000×g for 20 min. The supernatant was transferred to a new plate and diluted with 100 μL of water to reduce the organic content and then placed on a shaker for 10 mins. Samples were injected and analyzed with methods described below.
Liquid Chromatography: Quantification of positive control and test compound was performed by analyte/internal standard peak area ratios (PAR) measured on a Thermo Scientific™ Q Exactive™ Hybrid Quadrupole-Orbitrap Mass Spectrometer MS/MS with an electrospray interface operating in positive ion mode. The mass spectrometer was coupled to a Dionex Ultimate® 3000 HPLC system. Samples (10 μL aliquots) were injected with a Leap Technologies HTC PAL autosampler. For positive control, the column used was a Thermo Scientific™ Hypersil GOLD™ HPLC column ([…], 50×2.1 mm). Mobile phase A consisted of 95% (v/v) water, 5% (v/v) acetonitrile, and contained 0.1% (v/v) formic acid (FA). Mobile phase B consisted of 95% (v/v) acetonitrile, 5% (v/v) water, and contained 0.1% (v/v) FA. Elution was achieved, at a flow rate of 0.5 mL/min, by a series of linear gradients: initial condition was 5% B at 0 min, isocratic for 20 seconds; then linear gradient to 95% B over 90 seconds, followed by isocratic for 60 seconds at 95% B, and re-equilibrated to initial conditions over 70 seconds.
Metabolic stabilities of positive control and test compound were determined by measuring the rates of disappearance of the parent with time by determining the % of parent remaining at time t (Ct) {Obach 1997}.
Data (% of parent remaining) were plotted on a semi-log scale and fitted using an exponential fit: […]

[4] = brain Kp = [brain]/[plasma], rat, read-out: Rat brain Kp
[5] = brain Kpu,u = Kp * (plasma free/rat brain free), read-out: Rat brain Kpu,u

SMILES	Kp [1, 4]	Kp [1, 5]	CC50 at 7 days [2] [nM]	Human Predicted Hepatocyte CL [3] [mL/min/kg]
Nc1nc2cnc(C(=O)N3CCC[C@@H]4Oc5cc(OC(F)(F)F)cc(F)c5[C@@H]43)cc2n2cncc12 (single isomer, unassigned) [Fg-55]	0.2	0.05	799	4
Cc1ncc2c(N)nc3cnc(C(=O)N4CCC[C@@H]5Oc6cc(OC(F)(F)F)ccc6[C@@H]54)cc3n12 [Ff-340, (4-amino-1-methylimidazo[1,5-a]pyrido[3,4-e]pyrazin-8-yl)((4aS,9bS)-7-(trifluoromethoxy)-3,4,4a,9b-tetrahydrobenzofuro[3,2-b]pyridin-1(2H)-yl)methanone]	0.2	0.06	2460	5
C[C@H]1CN(C(=O)c2cc3c(cc2F)nc(N)c2cncn23)[C@H]2c3cc(F)c(C(F)F)cc3C[C@H]2O1 (single isomer, unassigned) [Ff-173]	0.12	0.03	2250	3
Nc1nc2cnc(C(=O)N3CCC[C@@H]4Oc5cc(OC(F)(F)F)ccc5[C@@H]43)cc2n2cncc12 [Ff-341, (4-aminoimidazo[1,5-a]pyrido[3,4-e]pyrazin-8-yl)((4aS,9bS)-7-(trifluoromethoxy)-3,4,4a,9b-tetrahydrobenzofuro[3,2-b]pyridin-1(2H)-yl)methanone]	0.37	0.11	710	3.67
Nc1nc2cnc(C(=O)N3CC[C@H]4C[C@@H]3c3ccc(C(F)(F)F)cc3O4)cc2n2cncc12 [Ff-367, (4-aminoimidazo[1,5-a]pyrido[3,4-e]pyrazin-8-yl)((2S,6R)-9-(trifluoromethyl)-3,4-dihydro-2H-2,6-methanobenzo[b][1,5]oxazocin-5(6H)-yl)methanone]	0.32		925	2.67
C[C@H]1CN(C(=O)c2cc3c(cc2F)nc(N)c2cncn23)[C@H]2c3ccc(C(F)(F)F)cc3C[C@H]2O1 (single isomer, unassigned) [Ff-81]	0.17	0.04	1350	3
C[C@@H]1CN(C(=O)c2cc3c(cc2F)nc(N)c2cncn23)[C@H]2c3cc(F)c(OC(F)(F)F)cc3C[C@H]2O1 (single isomer, unassigned) [Ff-197]	0.22	0.06	712	4.17
[2H]C1([2H])CC[C@@H]2Oc3cc(C(F)(F)F)ccc3[C@@H]2N1C(=O)c1cc2c(cn1)nc(N)c1cncn12 [Fg-60, (4-aminoimidazo[1,5-a]pyrido[3,4-e]pyrazin-8-yl)((4aS,9bS)-7-(trifluoromethyl)-3,4,4a,9b-tetrahydrobenzofuro[3,2-b]pyridin-1(2H)-yl-2,2-d2)methanone]			683	3.5
Nc1nc2ccc(C(=O)N3CCC[C@@H]4Oc5cc(C(F)(F)F)ccc5[C@@H]43)cc2n2cncc12 [Ff-111, (4-aminoimidazo[1,5-a]quinoxalin-8-yl)((4aS,9bS)-7-(trifluoromethyl)-3,4,4a,9b-tetrahydrobenzofuro[3,2-b]pyridin-1(2H)-yl)methanone]	0.4	0.06	1100	5.83
Nc1nc2cnc(C(=O)N3CCC[C@@H]4Oc5cc(C(F)(F)F)ccc5[C@@H]43)cc2n2cncc12 [Ff-110, (4-aminoimidazo[1,5-a]pyrido[3,4-e]pyrazin-8-yl)((4aS,9bS)-7-(trifluoromethyl)-3,4,4a,9b-tetrahydrobenzofuro[3,2-b]pyridin-1(2H)-yl)methanone]	0.48	0.06	516	3.67
Nc1nc2cnc(C(=O)N3CC[C@H]4C[C@@H]3c3c(F)cc(C(F)(F)F)cc3O4)cc2n2cncc12 (single isomer, unassigned) [Ff-694]	0.29		723	3.5
Nc1nc2cnc(C(=O)N3CCC[C@@H]4Oc5c(ccc(C(F)(F)F)c5F)[C@@H]43)cc2n2cncc12 [Ff-109, (4-aminoimidazo[1,5-a]pyrido[3,4-e]pyrazin-8-yl)((4aS,9bS)-6-fluoro-7-(trifluoromethyl)-3,4,4a,9b-tetrahydrobenzofuro[3,2-b]pyridin-1(2H)-yl)methanone]	0.1	0.02	1380	2.33
Nc1nc2cnc(C(=O)N3CC[C@H]4C[C@@H]3c3ccc(OC(F)(F)F)cc3O4)cc2n2cncc12 [Ff-685, (4-aminoimidazo[1,5-a]pyrido[3,4-e]pyrazin-8-yl)((2S,6R)-9-(trifluoromethoxy)-3,4-dihydro-2H-2,6-methanobenzo[b][1,5]oxazocin-5(6H)-yl)methanone]			1130	4.83
Nc1nc2cnc(C(=O)N3CCC[C@@H]4Oc5cc(C(F)(F)F)cc(F)c5[C@@H]43)cc2n2cncc12 (single isomer, unassigned) [Fg-53]	0.29	0.05	503	2.83
Nc1nc2cc(F)c(C(=O)N3CCO[C@@H]4Cc5cc(C(F)(F)F)ccc5[C@@H]43)cc2n2cncc12 (single isomer, unassigned) [Ff-82]	0.15	0.02	2070	4.33
Nc1nc2cnc(C(=O)N3CC[C@H]4C[C@@H]3c3ccc(C(F)(F)F)c(F)c3O4)cc2n2cncc12 [Ff-684, (4-aminoimidazo[1,5-a]pyrido[3,4-e]pyrazin-8-yl)((2S,6R)-10-fluoro-9-(trifluoromethyl)-3,4-dihydro-2H-2,6-methanobenzo[b][1,5]oxazocin-5(6H)-yl)methanone]			1310	2.67
Nc1nc2cnc(C(=O)N3CC4(CC4)C[C@@H]4Oc5cc(C(F)(F)F)ccc5[C@@H]43)cc2n2cncc12 [Ff-648, (4-aminoimidazo[1,5-a]pyrido[3,4-e]pyrazin-8-yl)((4aS,9bS)-7-(trifluoromethyl)-4a,9b-dihydro-2H-spiro[benzofuro[3,2-b]pyridine-3,1′-cyclopropan]-1(4H)-yl)methanone]			650	5.67
